Measurements published in US20260226048A1, “MULTI-CYCLIC IRAK AND FLT3 INHIBITING COMPOUNDS AND USES THEREOF” (CHILDREN'S HOSPITAL MEDICAL CENTER, priority 2023, published 2026).

Legend:
IRAK1 = target: T1, IRAK1 (Homo sapiens, UniProt P51617); assay: RBC HotSpot Kinase Assay, IRAK1; format: biochemical; settings: isolated kinase enzyme, 33P-ATP, P81 filter-binding
T1 construct: purchased Reaction Biology (RBC HotSpot)
Source text: (§1) This assay uses the isolated kinase enzyme. […] Unlike kinase binding assays that measure competition for ATP, the HotSpot Kinase Assay is a functional assay that measures catalytic activity; as such it measures relative functional potency regardless of the mechanism of enzyme inhibition. This assay uses the form of the various enzymes that are easiest to express, which may not necessarily be the form of the enzyme that exist in the cell. (Sometimes the carboxy terminus has been truncated to aid in expression, or, if it is a receptor kinase, the enzyme itself is isolated from the other parts of the receptor that are involved in regulating kinase activity.)
(§2) The reagent used was as follows: Base Reaction buffer; 20 mM Hepes (pH 7.5), 10 mM MgCl2, 1 mM EGTA, 0.01% Brij35, 0.02 mg/ml BSA, 0.1 mM Na3VO4, 2 mM DTT, 1% DMSO. Required cofactors were added individually to each kinase reaction.

FLT3 = target: T2, FLT3 (Homo sapiens, UniProt P36888); assay: RBC HotSpot Kinase Assay, FLT3; format: biochemical; design: purchased Reaction Biology (RBC HotSpot); settings: isolated kinase enzyme, 33P-ATP, P81 filter-binding
T2 sequence (P36888 27-993): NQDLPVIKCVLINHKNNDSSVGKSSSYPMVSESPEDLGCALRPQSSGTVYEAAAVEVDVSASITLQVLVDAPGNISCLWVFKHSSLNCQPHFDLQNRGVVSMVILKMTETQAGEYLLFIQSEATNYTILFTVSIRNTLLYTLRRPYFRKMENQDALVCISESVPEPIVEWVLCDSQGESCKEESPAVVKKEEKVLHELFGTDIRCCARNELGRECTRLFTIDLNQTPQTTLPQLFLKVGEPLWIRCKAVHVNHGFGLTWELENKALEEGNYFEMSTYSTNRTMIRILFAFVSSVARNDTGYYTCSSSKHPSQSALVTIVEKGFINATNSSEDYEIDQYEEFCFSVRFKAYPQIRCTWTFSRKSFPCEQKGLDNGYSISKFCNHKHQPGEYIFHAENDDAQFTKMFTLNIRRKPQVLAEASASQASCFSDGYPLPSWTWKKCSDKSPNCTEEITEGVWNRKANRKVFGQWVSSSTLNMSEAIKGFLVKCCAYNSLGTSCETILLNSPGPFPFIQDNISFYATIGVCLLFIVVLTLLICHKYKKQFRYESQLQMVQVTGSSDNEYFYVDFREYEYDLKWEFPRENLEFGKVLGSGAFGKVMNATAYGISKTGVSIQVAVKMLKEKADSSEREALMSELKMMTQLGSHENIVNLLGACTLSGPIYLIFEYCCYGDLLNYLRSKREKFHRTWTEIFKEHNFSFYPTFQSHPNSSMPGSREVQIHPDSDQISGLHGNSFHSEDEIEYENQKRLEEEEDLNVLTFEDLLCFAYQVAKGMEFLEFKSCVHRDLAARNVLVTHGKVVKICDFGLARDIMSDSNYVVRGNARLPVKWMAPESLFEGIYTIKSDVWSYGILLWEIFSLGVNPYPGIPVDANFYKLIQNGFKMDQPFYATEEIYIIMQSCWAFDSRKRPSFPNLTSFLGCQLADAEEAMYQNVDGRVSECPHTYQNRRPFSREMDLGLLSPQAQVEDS
Source text: as §1, §2

MOLM14 D835Y cells = assay: MOLM14 D835Y cell viability assay (Cell Titer Glo); format: cell-based; settings: Homo sapiens, MOLM-14, 48 h, cell viability, Cell Titer Glo, 48 hours; read-out: MOLM14 D835Y IC50
Procedure: (§3) Both cell lines have activated FLT3 receptors, each of which carry additional resistance mutations in the kinase domain (D835Y and F691L, respectively).
(§4) For viability/cytotoxicity assessments, cells were seeded into 1536-well white polystyrene tissue culture-treated Greiner plates using a Multidrop Combi dispenser (ThermoFisher), in final volume 5 μL of growth media per well, at a density of 1000 cells per well. […] Plates were incubated for 48 hours at standard incubator conditions covered by a stainless steel gasketed lid to prevent evaporation. 48 hours post compound addition, 3 μL of Cell Titer Glo (Promega) were added to each well and plates were incubated at room temperature for 15 minutes with the stainless-steel lid in place. Luminescence readings were taken using a Viewlux imager (PerkinElmer) with a 2 second exposure time per plate.

IRAK4 = target: T3, IRAK4 (Homo sapiens, UniProt Q9NWZ3); assay: RBC HotSpot Kinase Assay, IRAK4; format: biochemical; design: purchased Reaction Biology (RBC HotSpot); settings: isolated kinase enzyme, 33P-ATP, P81 filter-binding
T3 sequence (Q9NWZ3 1-460): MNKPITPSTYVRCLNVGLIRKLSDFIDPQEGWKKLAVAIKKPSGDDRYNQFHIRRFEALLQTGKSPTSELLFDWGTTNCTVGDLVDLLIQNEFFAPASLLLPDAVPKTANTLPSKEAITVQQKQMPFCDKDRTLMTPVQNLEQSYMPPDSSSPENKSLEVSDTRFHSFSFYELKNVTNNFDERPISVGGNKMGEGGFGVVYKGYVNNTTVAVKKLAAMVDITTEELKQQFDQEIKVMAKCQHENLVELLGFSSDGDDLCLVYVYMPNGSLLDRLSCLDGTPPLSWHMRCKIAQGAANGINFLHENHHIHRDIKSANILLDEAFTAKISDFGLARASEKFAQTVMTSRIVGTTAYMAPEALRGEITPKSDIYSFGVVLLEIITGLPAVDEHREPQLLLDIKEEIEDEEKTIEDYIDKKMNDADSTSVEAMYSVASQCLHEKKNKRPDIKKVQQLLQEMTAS
Source text: as §1, with “enzyme. This assay is very useful for determining competition of the inhibitor for ATP and/or substrates and for measuring the kinetics of enzyme inhibition.” for “enzyme.”
as §2
The reaction procedure was as follows: • 1) Substrates were prepared in freshly prepared Reaction Buffer. • 2) Any required cofactors were delivered to the substrate solution above. • 3) Kinase was delivered into the substrate solution and gently mixed. • 4) Compounds were delivered in 1000A DM into the kinase reaction mixture by Acoustic technology (Echo550; nanoliter range), followed by incubation for 20 min at room temp. • 5) 33P-ATP was delivered into the reaction mixture to initiate the reaction. • 6) The mixture was incubated for 2 hours at room temperature. • 7) Kinase activity was detected by P81 filter-binding method.

MOLM14 F691L cells = assay: MOLM14 F691L cell viability assay (Cell Titer Glo); format: cell-based; settings: Homo sapiens, MOLM-14; cell viability, Cell Titer Glo, 48 hours; read-out: MOLM14 F691L IC50
Procedure: as §3, §4

T1 sequence (P51617 whole entry): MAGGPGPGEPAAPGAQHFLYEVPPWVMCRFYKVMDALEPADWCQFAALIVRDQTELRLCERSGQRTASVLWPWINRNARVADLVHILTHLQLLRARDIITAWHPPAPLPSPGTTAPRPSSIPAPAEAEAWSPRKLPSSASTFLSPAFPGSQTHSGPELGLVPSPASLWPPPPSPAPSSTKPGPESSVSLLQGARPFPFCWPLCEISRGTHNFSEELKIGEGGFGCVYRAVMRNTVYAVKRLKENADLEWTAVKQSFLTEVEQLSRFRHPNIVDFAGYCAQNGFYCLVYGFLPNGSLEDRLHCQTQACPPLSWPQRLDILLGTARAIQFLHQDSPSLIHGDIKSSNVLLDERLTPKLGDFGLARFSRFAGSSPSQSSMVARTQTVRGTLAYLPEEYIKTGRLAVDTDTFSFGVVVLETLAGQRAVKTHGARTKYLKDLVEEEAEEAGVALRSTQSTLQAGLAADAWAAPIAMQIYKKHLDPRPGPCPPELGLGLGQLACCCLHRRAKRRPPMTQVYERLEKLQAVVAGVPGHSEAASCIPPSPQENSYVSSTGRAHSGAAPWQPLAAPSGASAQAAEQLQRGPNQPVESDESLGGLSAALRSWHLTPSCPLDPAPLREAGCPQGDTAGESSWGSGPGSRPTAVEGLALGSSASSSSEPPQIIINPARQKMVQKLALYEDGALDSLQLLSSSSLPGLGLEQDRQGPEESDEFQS

Compound	IC50 (IRAK1) [nM]	IC50 (FLT3) [nM]	IC50 (MOLM14 D835Y cells) [nM]	IC50 (IRAK4) [nM]	IC50 (MOLM14 F691L cells) [nM]
COc1cc2ncc(-c3ccnc(N[C@H]4CNC[C@@H]4F)n3)n2nc1C1CCCC1 [Compound 83a, 4-(6-cyclopentyl-7-methoxyimidazo[1,2-b]pyridazin-3-yl)-N-((3S,4S)-4-fluoropyrrolidin-3-yl)pyrimidin-2-amine]	8	< 0.5	16	0.6	113
COc1cc2ncc(-c3nc(N[C@@H]4CCCNC4)ncc3F)n2nc1C1CC(C)(C)C1 [Compound 56a, (R)-4-(6-(3,3-dimethylcyclobutyl)-7-methoxyimidazo[1,2-b]pyridazin-3-yl)-5-fluoro-N-(piperidin-3-yl)pyrimidin-2-amine]	0.7	< 0.5	8	2	71
COc1cc2ncc(-c3ccnc(N[C@H]4CNCC[C@@H]4F)n3)n2nc1C1CCCCC1 [Compound 88a, 4-(6-cyclohexyl-7-methoxyimidazo[1,2-b]pyridazin-3-yl)-N-((3S,4S)-4-fluoropiperidin-3-yl)pyrimidin-2-amine]	13	< 0.5	25	4	179
COc1cc2ncc(-c3nc(N[C@H]4CNC[C@@H]4F)ncc3F)n2nc1C1CCC1 [Compound 52a, 4-(6-cyclobutyl-7-methoxyimidazo[1,2-b]pyridazin-3-yl)-5-fluoro-N-((3S,4S)-4-fluoropyrrolidin-3-yl)pyrimidin-2-amine]	0.8	< 0.5	3	0.9	45
COc1cc2ncc(-c3ccnc(N[C@@H]4CCCNC4)n3)n2nc1C1COC1 [Compound 96a, (R)-4-(7-methoxy-6-(oxetan-3-yl)imidazo[1,2-b]pyridazin-3-yl)-N-(piperidin-3-yl)pyrimidin-2-amine]	1790	0.5	16	62	160
COc1cc2ncc(-c3nc(N[C@H]4CNC[C@@H]4F)ncc3F)n2nc1C1CC(C)(C)C1 [Compound 55a, 4-(6-(3,3-dimethylcyclobutyl)-7-methoxyimidazo[1,2-b]pyridazin-3-yl)-5-fluoro-N-((3S,4S)-4-fluoropyrrolidin-3-yl)pyrimidin-2-amine]	5	< 0.5	28	2	225
F[C@H]1CNC[C@@H]1Nc1cncc(-c2cnc3cc(OC4CC4)c(C4CC4)nn23)n1 [Compound 14a, 6-(7-cyclopropoxy-6-cyclopropylimidazo[1,2-b]pyridazin-3-yl)-N-((3S,4S)-4-fluoropyrrolidin-3-yl)pyrazin-2-amine]	117	< 0.5	101	16	318
COc1cc2ncc(-c3ccnc(N[C@H]4CNCC[C@@H]4F)n3)n2nc1C1CCCC1 [Compound 85a, 4-(6-cyclopentyl-7-methoxyimidazo[1,2-b]pyridazin-3-yl)-N-((3S,4S)-4-fluoropiperidin-3-yl)pyrimidin-2-amine]	7	< 0.5	11	1	90
COc1cc2ncc(-c3ccnc(N[C@H]4CNC[C@@H]4F)n3)n2nc1C1CCC1 [Compound 77a, 4-(6-cyclobutyl-7-methoxyimidazo[1,2-b]pyridazin-3-yl)-N-((3S,4S)-4-fluoropyrrolidin-3-yl)pyrimidin-2-amine]	12	< 0.5	16	1	142
Fc1cnc(N[C@H]2CNCC[C@@H]2F)nc1-c1cnc2cnc(C3COC3)cn12 [Compound 117a, 5-fluoro-N-((3S,4S)-4-fluoropiperidin-3-yl)-4-(6-(oxetan-3-yl)imidazo[1,2-a]pyrazin-3-yl)pyrimidin-2-amine]	397	3	159	45	1590
COc1cc2ncc(-c3ccnc(N[C@H]4CNCC[C@@H]4F)n3)n2nc1N1CC(F)(F)C1 [Compound 18a, 4-(6-(3,3-difluoroazetidin-1-yl)-7-methoxyimidazo[1,2-b]pyridazin-3-yl)-N-((3S,4S)-4-fluoropiperidin-3-yl)pyrimidin-2-amine]	226	< 0.5	51	15	
COc1cc2ncc(-c3nc(N[C@@H]4CCCNC4)ncc3F)n2nc1C(C)(C)O [Compound 43a, (R)-2-(3-(5-fluoro-2-(piperidin-3-ylamino)pyrimidin-4-yl)-7-methoxyimidazo[1,2-b]pyridazin-6-yl)propan-2-ol]	50	1	23	29	
COc1cc2ncc(-c3cncc(N[C@H]4CNC[C@@H]4F)n3)n2nc1C1CC(F)(F)C1 [Compound 71a, 6-(6-(3,3-difluorocyclobutyl)-7-methoxyimidazo[1,2-b]pyridazin-3-yl)-N-((3S,4S)-4-fluoropyrrolidin-3-yl)pyrazin-2-amine]	342	1	576	64	
FC(F)COc1cc2ncc(-c3ccnc(N[C@@H]4CCCNC4)n3)n2nc1C1CC1 [Compound 6a, (R)-4-(6-cyclopropyl-7-(2,2-difluoroethoxy)imidazo[1,2-b]pyridazin-3-yl)-N-(piperidin-3-yl)pyrimidin-2-amine]	133	< 0.5	9	3	
